For orientation: DC50 means the concentration giving 50% degradation. One may read the Emax as the size of the effect at its maximum, as opposed to the concentration needed.

Read-outs that look alike come from different tables or passages of the source.

Experimental findings from patent publication US20260274856A1, “COVALENT CEREBLON LIGANDS” (C4 THERAPEUTICS, INC., priority 2023, published 2026) are described below.

The target of the assay is mutant BRAF V600E (Homo sapiens, UniProt P15056, V600E). As to the kind of experiment: BRAF V600E HiBiT Degradation Assay in A375.10 cells. Particulars: for HiBIT-Degradation A375.10 BRAF 2 hours IP nM / HiBIT-Degradation A375.10 BRAF 24 hours IP nM: inflection point of the dose-response curve. (In general: With HiBiT, luminescence reflects the tagged protein that the partner subunit can reach.)

Where [1] appears, read: read-out: HIBIT-Degradation A375.10 BRAF 2 hours DC50 nM, 2 hours, A375.10 cells.
[2] abbreviates: read-out: HiBIT-Degradation A375.10 BRAF 2 hours Emax.
Where [3] appears, read: read-out: HiBIT-Degradation A375.10 BRAF 24 hours DC50 nM, 24 hours, A375.10 cells.
[4] abbreviates: read-out: HiBIT-Degradation A375.10 BRAF 24 hours Emax.

Sequence of mutant BRAF V600E (P15056 whole entry V600E): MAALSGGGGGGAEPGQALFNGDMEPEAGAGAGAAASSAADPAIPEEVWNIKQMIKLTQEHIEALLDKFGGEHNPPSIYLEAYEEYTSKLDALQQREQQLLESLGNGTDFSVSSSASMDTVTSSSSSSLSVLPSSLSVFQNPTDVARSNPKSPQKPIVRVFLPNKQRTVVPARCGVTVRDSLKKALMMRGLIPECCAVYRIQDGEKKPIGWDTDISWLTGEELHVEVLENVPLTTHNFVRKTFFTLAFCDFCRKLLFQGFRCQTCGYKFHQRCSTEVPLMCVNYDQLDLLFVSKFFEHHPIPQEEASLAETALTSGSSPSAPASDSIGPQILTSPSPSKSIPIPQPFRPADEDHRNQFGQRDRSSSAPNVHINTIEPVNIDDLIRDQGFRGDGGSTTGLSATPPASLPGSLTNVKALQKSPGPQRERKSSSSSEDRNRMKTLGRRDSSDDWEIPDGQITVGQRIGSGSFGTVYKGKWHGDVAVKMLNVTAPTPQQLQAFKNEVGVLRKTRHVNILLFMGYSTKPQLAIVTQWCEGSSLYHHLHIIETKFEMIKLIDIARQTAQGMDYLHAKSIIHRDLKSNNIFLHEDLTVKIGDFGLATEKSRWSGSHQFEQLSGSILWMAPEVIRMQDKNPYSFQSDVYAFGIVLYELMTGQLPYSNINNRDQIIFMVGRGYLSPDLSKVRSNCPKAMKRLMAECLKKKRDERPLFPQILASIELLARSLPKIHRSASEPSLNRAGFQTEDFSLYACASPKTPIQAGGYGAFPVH
Description: Compounds of this invention were tested for degradation of mutant BRAF V600E using the HiBiT assay, a luminescence-based assay for quantification of cellular protein levels using the Nano-Glo@HiBiT Lytic Detection System (Catalog No. N3050, Promega, Madison, WI USA). This assay utilizes the HiBiT tag on a protein of interest, which creates a luminescent signal in the presence of a complementing peptide and its substrate, the quantification of which 10 is proportional to the amount of HiBiT-tagged protein in the cell.
A375 cells were engineered to express HiBiT tagged BRAF V600E by CRISPR knock-in of the HiBiT tag to the endogenous BRAF V600E locus, followed by selection of a clonal population containing 15 the appropriate knock-in (referred to here as cell line A375.10). […] Cell culture flasks and 384-well microplates 20 were acquired from VWR (Radnor, PA, USA).
Plates were then spun briefly, and cells were incubated with compound at 37° C. for 2 hoursor 24 hours.
Following the appropriate treatment time, Nano-Glo® HiBiT Lytic Assay reagents were added to the cells per the manufacturer's instructions by adding 30ul of reagent per well, and 10 the luminescence signal was acquired by plate reader. Cells treated with DMSO only (no test compound treatment) were used as the negative control (N). Media only (no cells added) with Nano-Glo reagent addition was used as the background or positive control (P). The percent response of compound treated samples were calculated by subtracting out the background signal (P) and normalizing to the DMSO control (N) as follows. % Response=100 x (Treated Signal - Average (P))/(Average (N) - Average (P)).
Data were analyzed with a 4-parameter logistic fit to generate sigmoidal dose-response curves. […] The Emax, or maximum effect of each compound, represents the amount of residual protein remaining in the cell following compound treatment.
The experiment was conducted at least once for each compound. If the experiment was conducted multiple times, the data shown in the table is the average of the two or more experiments.

Consider `CCN(C)S(=O)(=O)Nc1ccc(F)c(Oc2ccc3ncn([C@H]4COC5(CCN(C(=O)CN6CCN(c7ccc(C8CCC(=O)NC8=O)cc7OS(=O)(=O)F)CC6)CC5)C4)c(=O)c3c2)c1C#N` (stereo partly drawn) [drawing 1199], for which the “HiBIT-Degradation A375.10 BRAF 2 hours IP nM” value (2 hours, A375.10 cells) was “*** (<= 1 μM is)”. In addition, the “HiBIT-Degradation A375.10 BRAF 2 hours Emax” value (2 hours, A375.10 cells, residual protein remaining) is reported as “*** (<= 60% is)”. Also, the DC50 under setting [1] was over 10000 nM.
`CCN(C)S(=O)(=O)Nc1ccc(F)c(Oc2ccc3ncn([C@H]4COC5(CCN(C(=O)CN6CCC(c7ccc(N8CCC(=O)NC8=O)cc7OS(C)(=O)=O)CC6)CC5)C4)c(=O)c3c2)c1C#N` [drawing 1205]: where the note is “2 hours, A375.10 cells”, the “HiBIT-Degradation A375.10 BRAF 2 hours IP nM” value is “** (<10 μM and >1 μM is **)”. Moreover, under setting [1], the DC50 lay within 1000 to 10000 nM. Further, the Emax under setting [2] was under 60%.
As for `CCN(C)S(=O)(=O)Nc1ccc(F)c(Oc2ccc3ncn([C@@H]4COC5(CCN(C(=O)CN6CCC(c7ccc(OC8CCC(=O)NC8=O)cc7OS(C)(=O)=O)CC6)CC5)C4)c(=O)c3c2)c1C#N` (stereo partly drawn) [drawing 1206], for the setting “2 hours, A375.10 cells”, the “HiBIT-Degradation A375.10 BRAF 2 hours IP nM” value is “** (<10 μM and >1 μM is **)”. Further, the DC50 under setting [1] was over 10000 nM. The Emax under setting [2] lay in the range of 60 to 95%.
For `CCN(C)S(=O)(=O)Nc1ccc(F)c(Oc2ccc3ncn([C@H]4COC5(CCN(C(=O)CN6CCN(c7ccc(C8CCC(=O)NC8=O)cc7OS(=O)(=O)F)CC6)CC5)C4)c(=O)c3c2)c1C#N` (stereo partly drawn) [drawing 1212], the “HiBIT-Degradation A375.10 BRAF 24 hours IP nM” value (24 hours, A375.10 cells) is on record as “*** (<= 1 μM is ***)”. The half-maximal degradation concentration (DC50) under setting [3] is under 1000 nM. Under setting [4], the maximal effect (Emax) is under 60%.
On to `CCN(C)S(=O)(=O)Nc1ccc(F)c(Oc2ccc3ncn([C@@H]4COC5(CCN(C(=O)CN6CCC(c7ccc(OC8CCC(=O)NC8=O)cc7OS(=O)(=O)F)CC6)CC5)C4)c(=O)c3c2)c1C#N` (stereo partly drawn) [drawing 1228], for which the “HiBIT-Degradation A375.10 BRAF 24 hours IP nM” value (24 hours, A375.10 cells) is “** (<10 μM and >1 μM is **)”. Besides, under setting [3], the DC50 was in the range of 1000 to 10000 nM. The Emax under setting [4] is under 60%.
Take `CCN(C)S(=O)(=O)Nc1ccc(F)c(Oc2ccc3ncn([C@H]4COC5(CCN(C(=O)CN6CCC(c7ccc(N8CCC(=O)NC8=O)cc7OS(C)(=O)=O)CC6)CC5)C4)c(=O)c3c2)c1C#N` [drawing 1220]: the “HiBIT-Degradation A375.10 BRAF 24 hours IP nM” value (24 hours, A375.10 cells) is “*** (<= 1 μM is ***)”. Moreover, the DC50 under setting [3] is under 1000 nM. Moreover, under setting [4], the Emax was under 60%.
For `CCN(C)S(=O)(=O)Nc1ccc(F)c(Oc2ccc3ncn([C@H]4COC5(CCN(C(=O)CN6CCN(c7ccc(N8CCC(=O)NC8=O)cc7OS(=O)(=O)F)CC6)CC5)C4)c(=O)c3c2)c1C#N` [drawing 1194], the “HiBIT-Degradation A375.10 BRAF 2 hours IP nM” value (2 hours, A375.10 cells) is “* (>=10 μM is *)”. The DC50 under setting [1] was over 10000 nM. Also, under setting [2], the Emax is over 95%.
Consider `CCN(C)S(=O)(=O)Nc1ccc(F)c(Oc2ccc3ncn([C@H]4COC5(CCN(C(=O)CN6CCC(c7ccc(N8CCC(=O)NC8=O)cc7OS(=O)(=O)F)CC6)CC5)C4)c(=O)c3c2)c1C#N` [drawing 1218], for which, under “24 hours, A375.10 cells”, the “HiBIT-Degradation A375.10 BRAF 24 hours IP nM” value is “*** (<= 1 μM is ***)”. Under setting [3], the DC50 was over 10000 nM. Besides, the Emax under setting [4] lay in the range of 60 to 95%.
Regarding `CCN(C)S(=O)(=O)Nc1ccc(F)c(Oc2ccc3ncn([C@H]4COC5(CCN(C(=O)CN6CCC(c7ccc(N8CCC(=O)NC8=O)cc7OS(=O)(=O)F)CC6)CC5)C4)c(=O)c3c2)c1C#N` [drawing 1193], the “HiBIT-Degradation A375.10 BRAF 2 hours IP nM” value (2 hours, A375.10 cells) was “* (>=10 μM is *)”. Moreover, the DC50 under setting [1] is over 10000 nM. In addition, under setting [2], the Emax is over 95%.
In the case of `CCN(C)S(=O)(=O)Nc1ccc(F)c(Oc2ccc3ncn([C@@H]4COC5(CCN(C(=O)CN6CCC(c7ccc(NC8CCC(=O)NC8=O)cc7S(=O)(=O)F)CC6)CC5)C4)c(=O)c3c2)c1C#N` (stereo partly drawn) [drawing 1222], the “HiBIT-Degradation A375.10 BRAF 24 hours IP nM” value (24 hours, A375.10 cells) is on record as “*** (<= 1 μM is ***)”. Also, under setting [3], the DC50 was 1000 to 10000 nM. The Emax under setting [4] was under 60%.
As for `CCN(C)S(=O)(=O)Nc1ccc(F)c(Oc2ccc3ncn([C@@H]4COC5(CCN(C(=O)CN6CCC(c7ccc(NC8CCC(=O)NC8=O)cc7OS(C)(=O)=O)CC6)CC5)C4)c(=O)c3c2)c1C#N` (stereo partly drawn) [drawing 1226], the “HiBIT-Degradation A375.10 BRAF 24 hours IP nM” value (24 hours, A375.10 cells) is “** (<10 μM and >1 μM is **)”. Further, under setting [3], the DC50 was in the range of 1000 to 10000 nM. Besides, under setting [4], the Emax is under 60%.
